Holding throughout (format): in vivo
In assay [1] the test system is Botrytis cinerea. The assay is described as follows: Treatment of strawberries inoculated with Botrytis cinerea (Example 5). The settings on record: 500 ppm natamycin, 600 ppm propineb; for Number of moulded strawberries/total number of 12 strawberries / Observed antifungal activity O: 20° C., strawberries. On the procedure:
Twelve fresh, organic strawberries were used per treatment. Each strawberry was wounded with a 0.5 mm long cut and each wound was inoculated with 10 μl of a Botrytis cinerea suspension containing 1×10^5 of spores/ml. After a 3-hour incubation period at 20° C., each strawberry was dipped individually for 1 minute in a freshly prepared aqueous antifungal composition comprising either 500 ppm natamycin (DSM Food Specialties, Delft, The Netherlands), 600 ppm propineb or both. Each antifungal composition also comprised 3.2% (w/w) beeswax, 0.8% (w/w) glycerol, 0.7% (w/w) polyoxyethylene sorbitan monostearate (Tween 60), 0.1% (w/w) polyoxyethylene sorbitan monooleate (Tween 80), 0.05% (w/w) methylhydroxyethyl-cellulose (MH EC), 0.03% (w/w) anti-foaming agent, 0.02% (w/w) xanthan gum, 0.02% (w/w) citric acid, 0.01% (w/w) lactic acid and 0.01% potassium sorbate. A composition without natamycin or propineb was used as control. […] The treated strawberries were incubated in a closed box in the dark at 20° C. for 9 days.
During incubation, mould growth on the strawberries was assessed in a twofold manner: (i) the number of moulded strawberries per total of 12 strawberries was counted; and (ii) the antifungal activity (in %) of the individual and combined active ingredients was determined by calculating the reduction in mould growth observed on the strawberries treated with the antifungal composition in comparison to the mould growth on the strawberries treated with the control composition. The expected antifungal activity (E in %) of the combined antifungal composition comprising both active ingredients was calculated according to the Colby equation (Colby, 1967): […]
wherein X and Y are the observed antifungal activities (in %) of the individual active ingredients X and Y, respectively.

The subject of assay [2] is Penicillium italicum. The assay is described as follows: Treatment of oranges inoculated with Penicillium italicum, natamycin/ferbam (Example 7). The following applies: 20° C., 600 ppm ferbam. On the procedure:
(§1) Ten fresh, organic oranges were used per treatment. Each orange was soaked in a 180 ppm hypochlorite solution for 10 minutes, then rinsed thoroughly with fresh tap water and dried. The peel of each disinfected orange was wounded once using a cork borer according to the method described by de Lapeyre de Bellaire and Dubois (1987). Subsequently, each wound was inoculated with 10 μl of a Penicillium italicum suspension containing 1×10^5 of spores/ml. After incubation for 3 hours at 20° C., each wound and the orange peel area of 1 cm around the wound was treated with in total 150 μl of a freshly prepared aqueous antifungal composition comprising either 500 ppm natamycin (DSM Food Specialties, Delft, The Netherlands), 500 ppm propineb or both. Each antifungal composition also comprised 3.2% (w/w) beeswax, 0.8% (w/w) glycerol, 0.7% (w/w) polyoxyethylene sorbitan monostearate (Tween 60), 0.2% (w/w) polyoxyethylene sorbitan monooleate (Tween 80), 0.05% (w/w) methylhydroxyethyl-cellulose (MHEC), 0.03% (w/w) anti-foaming agent, 0.02% (w/w) xanthan gum, 0.02% (w/w) citric acid, 0.01% (w/w) lactic acid and 0.01% potassium sorbate. A composition without natamycin or propineb was used as control.
(§2) The treated oranges were incubated in a closed box in the dark at 20° C. and assessed on mould growth during a 17-day incubation period. The antifungal activity (in %) of the individual and combined active ingredients was determined by calculating the reduction in mould growth observed on the oranges treated with the antifungal composition in comparison to the mould growth on the oranges treated with the control composition according to the Colby method (Colby, 1967) described in Example 5.
The experiment was conducted as described in Example 6, except for the fact that each wounded and inoculated orange was treated with 150 μl of a freshly prepared aqueous antifungal composition comprising either 500 ppm natamycin (DSM Food Specialties, Delft, The Netherlands), 600 ppm ferbam or both. During the 17-day incubation period, the treated oranges were assessed on mould growth according to the method described in Example 6.

The subject of assay [3] is Penicillium italicum. Kind of assay: Treatment of oranges inoculated with Penicillium italicum, natamycin/propineb (Example 6). The settings on record: 20° C., 500 ppm propineb. On the procedure:
as §1, §2

Assay [4] has as its system Botrytis cinerea. Kind of assay: Treatment of sweet peppers inoculated with Botrytis cinerea (Example 8). The following applies: 20° C., 200 ppm propineb. The protocol: Ten fresh, organic sweet peppers were used per treatment. Each sweet pepper was soaked in a 180 ppm hypochlorite solution for 10 minutes, then rinsed thoroughly with fresh tap water and dried. The peel of each disinfected sweet pepper was wounded once using a cork borer according to the method described by de Lapeyre de Bellaire and Dubois (1987). Subsequently, each wound was inoculated with 10 μl of a Botrytis cinerea suspension containing 1×10^5 of spores/ml. After incubation for 3 hours at 20° C., each wound and the skin area of 0.5 cm around the wound was treated with in total 75 μl of a freshly prepared aqueous antifungal composition comprising either 200 ppm natamycin (DSM Food Specialties, Delft, The Netherlands), 200 ppm propineb or both. Each antifungal composition also comprised 3.2% (w/w) beeswax, 0.8% (w/w) glycerol, 0.7% (w/w) polyoxyethylene sorbitan monostearate (Tween 60), 0.2% (w/w) polyoxyethylene sorbitan monooleate (Tween 80), 0.05% (w/w) methylhydroxyethyl-cellulose (MHEC), 0.03% (w/w) anti-foaming agent, 0.02% (w/w) xanthan gum, 0.02% (w/w) citric acid, 0.01% (w/w) lactic acid and 0.01% potassium sorbate. A composition without natamycin or propineb was used as control.
The treated sweet peppers were incubated in a closed box in the dark at 20° C. and assessed on mould growth during a 27-day incubation period. The antifungal activity (in %) of the individual and combined active ingredients was determined by calculating the reduction in mould growth observed on the sweet peppers treated with the antifungal composition in comparison to the mould growth on the sweet peppers treated with the control composition according to the Colby method (Colby, 1967) described in Example 5.

Setting [5] is: incubation day 7, 500 ppm natamycin.
Where [6] appears, read: incubation day 8, 500 ppm natamycin.
The mark [7] stands for this setting: incubation day 9, 500 ppm natamycin.
Setting [8] is: incubation day 10, 500 ppm natamycin.
[9] abbreviates: incubation day 11, 500 ppm natamycin.
[10] abbreviates: incubation day 12, 500 ppm natamycin.
[11] abbreviates: incubation day 13, 500 ppm natamycin.
Setting [12] is: incubation day 14, 500 ppm natamycin.
Where [13] appears, read: incubation day 15, 500 ppm natamycin.
Where [14] appears, read: incubation day 17, 500 ppm natamycin.
Where [15] appears, read: incubation day 11, 200 ppm natamycin.
[16] abbreviates: incubation day 12, 200 ppm natamycin.
Where [17] appears, read: incubation day 13, 200 ppm natamycin.
[18] abbreviates: incubation day 15, 200 ppm natamycin.
The mark [19] stands for this setting: incubation day 18, 200 ppm natamycin.
The mark [20] stands for this setting: incubation day 24, 200 ppm natamycin.
Where [21] appears, read: incubation days 20-22, 200 ppm natamycin.
The mark [22] stands for this setting: incubation days 25-27, 200 ppm natamycin.

Regarding `C[C@@H]1C/C=C/C=C/C=C/C=C/[C@H](O[C@@H]2O[C@H](C)[C@@H](O)[C@H](N)[C@@H]2O)C[C@@H]2O[C@](O)(C[C@@H](O)C[C@H]3O[C@@H]3/C=C/C(=O)O1)C[C@H](O)[C@H]2C(=O)O` [Natamycin, natamycin], the “Number of moulded strawberries/total number of 12 strawberries” value was 11/12 in the assay with Botrytis cinerea [1] (Day 5) and 12/12 with Botrytis cinerea [1] (Day 6-9). The “Observed antifungal activity O” value came to 33% with Botrytis cinerea [1] (incubation day 4); 16% in the assay with Botrytis cinerea [1] (incubation day 5); 5.3% in the assay on Botrytis cinerea [1] (incubation day 6); 11% in the assay with Botrytis cinerea [1] (incubation day 7); 14% with Botrytis cinerea [1] (incubation day 8); 4.8% in the assay with Botrytis cinerea [1] (incubation day 9). In addition, the “Observed antifungal activity O” value with Penicillium italicum [2] (setting [5]) is listed as 89%; in the assay on Penicillium italicum [2] (setting [6]) it was 86%; with Penicillium italicum [2] (setting [7]) it was 64%; in the assay on Penicillium italicum [2] (setting [8]) it was 54%; in the assay on Penicillium italicum [2] (setting [9]) it was 41%; with Penicillium italicum [2] (setting [10]) it was 36%. Also, the “Observed antifungal activity O” value with Penicillium italicum [2] (setting [11]) came out at 38%; in the assay on Penicillium italicum [2] (setting [12]), 32%; in the assay with Penicillium italicum [2] (setting [13]) it was 24%; in the assay on Penicillium italicum [2] (setting [14]), 21%; with Penicillium italicum [3] (setting [8]), 54%; in the assay with Penicillium italicum [3] (setting [9]), 41%. In addition, the “Observed antifungal activity O” value in the assay with Penicillium italicum [3] (setting [10]) worked out at 36%; with Penicillium italicum [3] (setting [11]) it was 38%; in the assay on Penicillium italicum [3] (setting [12]), 32%; in the assay on Penicillium italicum [3] (setting [13]), 24%; in the assay on Penicillium italicum [3] (setting [14]), 21%; in the assay on Botrytis cinerea [4] (setting [15]), 84%. In addition, the “Observed antifungal activity O” value with Botrytis cinerea [4] (setting [16]) stood at 80%; in the assay with Botrytis cinerea [4] (setting [17]), 79%; in the assay with Botrytis cinerea [4] (setting [18]) it was 78%; in the assay on Botrytis cinerea [4] (setting [19]), 75%; with Botrytis cinerea [4] (setting [20]), 59%; with Botrytis cinerea [4] (setting [21]), 71%. For the same molecule, the “Observed antifungal activity O” value in the assay with Botrytis cinerea [4] (setting [22]) is on record as 57%.

Consider `CN(C)C(=S)[S-].CN(C)C(=S)[S-].CN(C)C(=S)[S-].[Fe+3]` [Ferbam, ferbam], for which the “Observed antifungal activity O” value came out at 20% in the assay on Penicillium italicum [2] (setting [5]); 24% with Penicillium italicum [2] (setting [6]); 20% in the assay on Penicillium italicum [2] (setting [7]); 7% in the assay with Penicillium italicum [2] (setting [8]); 13% with Penicillium italicum [2] (setting [9]); 6% in the assay on Penicillium italicum [2] (setting [10]). Besides, the “Observed antifungal activity O” value in the assay with Penicillium italicum [2] (setting [11]) is 6%; in the assay with Penicillium italicum [2] (setting [12]), 6%; with Penicillium italicum [2] (setting [13]) it was 6%; in the assay on Penicillium italicum [2] (setting [14]), 5%.

propineb: in the assay on Botrytis cinerea [1] (after 5 through 9 days of incubation), the “Number of the 12 strawberries that showed mould growth” value was 12. The “Number of moulded strawberries/total number of 12 strawberries” value with Botrytis cinerea [1] (Day 5) and with Botrytis cinerea [1] (Day 6-9) was 12/12 in each case. Further, the “Observed antifungal activity O” value in the assay on Botrytis cinerea [1] (incubation day 4), in the assay with Botrytis cinerea [1] (incubation day 5), in the assay on Botrytis cinerea [1] (incubation day 6), in the assay with Botrytis cinerea [1] (incubation day 7), in the assay with Botrytis cinerea [1] (incubation day 8) and in the assay with Botrytis cinerea [1] (incubation day 9) was 0% each time. The “Observed antifungal activity O” value with Penicillium italicum [3] (setting [8]), in the assay on Penicillium italicum [3] (setting [9]), in the assay with Penicillium italicum [3] (setting [10]), in the assay with Penicillium italicum [3] (setting [11]), in the assay with Penicillium italicum [3] (setting [12]) and in the assay with Penicillium italicum [3] (setting [13]) was 0% in each case. Further, the “Observed antifungal activity O” value in the assay with Penicillium italicum [3] (setting [14]), in the assay with Botrytis cinerea [4] (setting [15]), with Botrytis cinerea [4] (setting [16]), in the assay with Botrytis cinerea [4] (setting [17]), in the assay on Botrytis cinerea [4] (setting [18]) and in the assay with Botrytis cinerea [4] (setting [19]) was 0% each time. For the same molecule, the “Observed antifungal activity O” value with Botrytis cinerea [4] (setting [20]), in the assay with Botrytis cinerea [4] (setting [21]) and in the assay with Botrytis cinerea [4] (setting [22]) was 0% each time.
